Measured values reported in US9611267B2, “Substituted tricyclic compounds as FGFR inhibitors” (Incyte Corporation, priority 2012, dated 2017).

What was measured:
Type in all cases: biochemical
[1] = molecular target: FGFR2 (Homo sapiens (Human), UniProt P21802); assay: FGFR enzymatic assay (FRET peptide phosphorylation), FGFR2; conditions: FGFR2 enzyme 0.01 nM, ATP 100 μM
In short: (§1)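 IC50 values were obtained from variable-slope sigmoidal dose-response fitting of a FRET read-out of peptide phosphorylation. The buffer, described for FGFR3, was 50 mM HEPES pH 7.5 with MgCl2, EGTA, Tween-20 and DTT.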

[2] = molecular target: FGFR1 (Homo sapiens (Human), UniProt P11362); assay: FGFR enzymatic assay (FRET peptide phosphorylation), FGFR1; conditions: FGFR1 enzyme 0.02 nM, ATP 210 μM
In short: as §1

[3] = molecular target: FGFR3 (Homo sapiens (Human), UniProt P22607); assay: FGFR enzymatic assay (FRET peptide phosphorylation), FGFR3; conditions: FGFR3 enzyme (Millipore), ATP 140 μM
In short: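 After 5-10 min pre-incubation of FGFR3 with serially diluted compound in pH 7.5 HEPES/MgCl2/EGTA/DTT buffer, the reaction proceeded 1 hr at 25° C. Phosphorylated peptide was detected by FRET, and IC50 was fitted with a variable-slope sigmoid.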

Measured: IC50

Chain of FGFR1 (P11362 22-822): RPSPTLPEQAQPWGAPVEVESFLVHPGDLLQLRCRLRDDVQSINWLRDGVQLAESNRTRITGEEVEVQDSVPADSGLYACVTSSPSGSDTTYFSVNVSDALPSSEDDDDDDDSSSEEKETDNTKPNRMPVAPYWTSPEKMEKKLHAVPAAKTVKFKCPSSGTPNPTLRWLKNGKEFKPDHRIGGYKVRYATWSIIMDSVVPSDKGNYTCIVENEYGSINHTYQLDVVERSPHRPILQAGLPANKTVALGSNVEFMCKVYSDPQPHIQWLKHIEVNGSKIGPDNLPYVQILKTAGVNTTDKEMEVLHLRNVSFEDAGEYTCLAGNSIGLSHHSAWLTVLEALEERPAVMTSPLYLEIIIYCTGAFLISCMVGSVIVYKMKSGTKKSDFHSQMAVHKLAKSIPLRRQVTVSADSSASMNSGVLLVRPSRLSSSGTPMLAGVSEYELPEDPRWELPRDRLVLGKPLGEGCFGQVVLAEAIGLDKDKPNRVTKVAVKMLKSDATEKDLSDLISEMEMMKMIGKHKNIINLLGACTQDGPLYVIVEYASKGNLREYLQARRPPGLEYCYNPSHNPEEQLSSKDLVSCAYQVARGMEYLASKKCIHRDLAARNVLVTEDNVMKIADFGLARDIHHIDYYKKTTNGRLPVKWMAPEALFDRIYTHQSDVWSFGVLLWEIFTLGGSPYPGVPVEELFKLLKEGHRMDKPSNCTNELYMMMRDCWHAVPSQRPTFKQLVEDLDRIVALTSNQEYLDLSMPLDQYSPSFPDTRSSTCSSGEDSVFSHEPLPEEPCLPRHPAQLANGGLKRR
Chain of FGFR3 (P22607 23-806): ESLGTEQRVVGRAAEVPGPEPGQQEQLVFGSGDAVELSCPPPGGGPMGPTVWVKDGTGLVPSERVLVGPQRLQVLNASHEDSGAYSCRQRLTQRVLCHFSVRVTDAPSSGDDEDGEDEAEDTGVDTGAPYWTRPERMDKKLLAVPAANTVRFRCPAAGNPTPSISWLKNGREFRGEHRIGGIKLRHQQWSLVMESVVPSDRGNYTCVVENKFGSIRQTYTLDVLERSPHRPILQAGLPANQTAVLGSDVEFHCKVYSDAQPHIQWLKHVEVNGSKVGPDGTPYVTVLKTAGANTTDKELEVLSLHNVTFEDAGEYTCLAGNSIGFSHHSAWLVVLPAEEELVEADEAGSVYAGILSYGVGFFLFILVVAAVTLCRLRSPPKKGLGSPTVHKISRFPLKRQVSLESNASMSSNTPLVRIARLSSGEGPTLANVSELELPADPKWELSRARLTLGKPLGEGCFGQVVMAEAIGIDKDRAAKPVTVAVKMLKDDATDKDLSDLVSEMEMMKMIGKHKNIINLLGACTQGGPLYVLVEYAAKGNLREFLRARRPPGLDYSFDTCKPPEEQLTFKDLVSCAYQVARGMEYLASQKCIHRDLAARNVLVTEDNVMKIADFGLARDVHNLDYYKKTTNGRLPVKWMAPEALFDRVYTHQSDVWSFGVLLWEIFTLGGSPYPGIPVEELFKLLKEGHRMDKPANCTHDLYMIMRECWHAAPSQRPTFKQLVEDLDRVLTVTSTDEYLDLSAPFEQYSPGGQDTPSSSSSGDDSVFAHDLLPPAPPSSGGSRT
Chain of FGFR2 (P21802 22-821): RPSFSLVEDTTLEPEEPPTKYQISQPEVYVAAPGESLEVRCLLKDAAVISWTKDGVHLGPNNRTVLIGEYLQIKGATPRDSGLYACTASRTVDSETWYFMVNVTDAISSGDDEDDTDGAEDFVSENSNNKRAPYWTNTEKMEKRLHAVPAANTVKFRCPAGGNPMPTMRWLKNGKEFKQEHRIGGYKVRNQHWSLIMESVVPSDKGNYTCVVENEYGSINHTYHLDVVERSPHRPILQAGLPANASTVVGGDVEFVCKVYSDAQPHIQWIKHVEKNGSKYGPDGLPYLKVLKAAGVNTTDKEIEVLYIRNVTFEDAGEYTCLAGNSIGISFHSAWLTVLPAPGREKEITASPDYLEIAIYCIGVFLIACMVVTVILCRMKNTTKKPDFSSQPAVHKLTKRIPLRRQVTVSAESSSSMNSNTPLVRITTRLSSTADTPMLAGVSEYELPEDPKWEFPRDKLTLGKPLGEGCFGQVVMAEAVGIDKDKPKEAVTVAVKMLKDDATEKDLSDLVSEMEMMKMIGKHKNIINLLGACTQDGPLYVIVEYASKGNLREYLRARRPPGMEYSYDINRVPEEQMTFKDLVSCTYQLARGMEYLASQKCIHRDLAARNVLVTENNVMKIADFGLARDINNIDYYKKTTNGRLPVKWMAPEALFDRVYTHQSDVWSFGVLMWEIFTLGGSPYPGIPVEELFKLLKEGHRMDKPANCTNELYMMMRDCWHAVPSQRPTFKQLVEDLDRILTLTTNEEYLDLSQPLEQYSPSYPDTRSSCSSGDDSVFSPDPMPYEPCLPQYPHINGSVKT

CCN1C(=O)N(c2c(F)c(OC)cc(OC)c2F)Cc2cnc3[nH]c(CN4CCN(C)CC4)cc3c21 [Example 127, 3-(2,6-difluoro-3,5-dimethoxyphenyl)-1-ethyl-8-[(4-methylpiperazin-1-yl)methyl]-1,3,4,7-tetrahydro-2H-pyrrolo[3′,2′:5,6]pyrido[4,3-d]pyrimidin-2-one]
< 0.1 µM: all assays above

COc1cc(OC)c(F)c(N2Cc3cnc4[nH]c(CN5CCN(C)CC5)cc4c3N(C)C2=O)c1F [Example 129, 3-(2,6-difluoro-3,5-dimethoxyphenyl)-1-methyl-8-[(4-methylpiperazin-1-yl)methyl]-1,3,4,7-tetrahydro-2H-pyrrolo[3′,2′:5,6]pyrido[4,3-d]pyrimidin-2-one]
< 0.1 µM: all assays above

COc1cc(OC)c(F)c(N2Cc3cnc4[nH]c(CN5CCN(CCO)CC5)cc4c3N(C)C2=O)c1F [Example 130, 3-(2,6-difluoro-3,5-dimethoxyphenyl)-8-{[4-(2-hydroxyethyl)piperazin-1-yl]methyl}-1-methyl-1,3,4,7-tetrahydro-2H-pyrrolo[3′,2′:5,6]pyrido[4,3-d]pyrimidin-2-one]
< 0.1 µM: all assays above

COc1cc(OC)c(F)c(N2Cc3cnc4[nH]c(CN5CCN(CCC#N)CC5)cc4c3N(C)C2=O)c1F [Example 131, 3-(4-{[3-(2,6-difluoro-3,5-dimethoxyphenyl)-1-methyl-2-oxo-2,3,4,7-tetrahydro-1H-pyrrolo[3′,2′:5,6]pyrido[4,3-d]pyrimidin-8-yl]methyl}piperazin-1-yl)propanenitrile]
< 0.1 µM: all assays above

COc1cc(OC)c(F)c(N2Cc3cnc4[nH]c(CN5CCC(C#N)CC5)cc4c3N(C)C2=O)c1F [Example 132, 1-{[3-(2,6-difluoro-3,5-dimethoxyphenyl)-1-methyl-2-oxo-2,3,4,7-tetrahydro-1H-pyrrolo[3′,2′:5,6]pyrido[4,3-d]pyrimidin-8-yl]methyl}piperidine-4-carbonitrile]
< 0.1 µM: all assays above

COc1cc(OC)c(F)c(N2Cc3cnc4[nH]c(CN5CC[C@H](C#N)C5)cc4c3N(C)C2=O)c1F [Example 133, (3S)-1-{[3-(2,6-difluoro-3,5-dimethoxyphenyl)-1-methyl-2-oxo-2,3,4,7-tetrahydro-1H-pyrrolo[3′,2′:5,6]pyrido[4,3-d]pyrimidin-8-yl]methyl}pyrrolidine-3-carbonitrile]
< 0.1 µM: all assays above

COc1cc(OC)c(F)c(N2Cc3cnc4[nH]c(CNC5CCN(C)CC5)cc4c3N(C)C2=O)c1F [Example 134, 3-(2,6-difluoro-3,5-dimethoxyphenyl)-1-methyl-8-{[(1-methylpiperidin-4-yl)amino]methyl}-1,3,4,7-tetrahydro-2Hpyrrolo[3′,2′:5,6]pyrido[4,3-d]pyrimidin-2-one]
< 0.1 µM: all assays above

COc1cc(OC)c(F)c(N2Cc3cnc4[nH]c(CN[C@H]5CCOC5)cc4c3N(C)C2=O)c1F [Example 135, 3-(2,6-difluoro-3,5-dimethoxyphenyl)-1-methyl-8-{[(3S)-tetrahydrofuran-3-ylamino]methyl}-1,3,4,7-tetrahydro-2Hpyrrolo[3′,2′:5,6]pyrido[4,3-d]pyrimidin-2-one]
< 0.1 µM: all assays above

COc1cc(OC)c(F)c(N2Cc3cnc4[nH]c(CN[C@@H]5CCOC5)cc4c3N(C)C2=O)c1F [Example 136, 3-(2,6-difluoro-3,5-dimethoxyphenyl)-1-methyl-8-{[(3R)-tetrahydrofuran-3-ylamino]methyl}-1,3,4,7-tetrahydro-2Hpyrrolo[3′,2′:5,6]pyrido[4,3-d]pyrimidin-2-one]
< 0.1 µM: all assays above

COc1cc(OC)c(F)c(N2Cc3cnc4[nH]c(Cn5ccnc5)cc4c3N(C)C2=O)c1F [Example 137, 3-(2,6-difluoro-3,5-dimethoxyphenyl)-8-(1H-imidazol-1-ylmethyl)-1-methyl-1,3,4,7-tetrahydro-2H-pyrrolo[3′,2′:5,6]pyrido[4,3-d]pyrimidin-2-one]
< 0.1 µM: all assays above

COc1cc(OC)c(F)c(N2Cc3cnc4[nH]c(Cn5cccn5)cc4c3N(C)C2=O)c1F [Example 138, 3-(2,6-difluoro-3,5-dimethoxyphenyl)-1-methyl-8-(1H-pyrazol-1-ylmethyl)-1,3,4,7-tetrahydro-2H-pyrrolo[3′,2′:5,6]pyrido[4,3-d]pyrimidin-2-one]
< 0.1 µM: all assays above

COc1cc(OC)c(F)c(N2Cc3cnc4[nH]c(Cc5cnn(C)c5)cc4c3N(C)C2=O)c1F [Example 139, 3-(2,6-difluoro-3,5-dimethoxyphenyl)-1-methyl-8-[(1-methyl-1H-pyrazol-4-yl)methyl]-1,3,4,7-tetrahydro-2H-pyrrolo[3′,2′:5,6]pyrido[4,3-d]pyrimidin-2-one]
< 0.1 µM: all assays above

COc1cc(OC)c(F)c(N2Cc3cnc4[nH]c(CCc5ccccn5)cc4c3N(C)C2=O)c1F [Example 140, 3-(2,6-difluoro-3,5-dimethoxyphenyl)-1-methyl-8-(2-pyridin-2-ylethyl)-1,3,4,7-tetrahydro-2H-pyrrolo[3′,2′:5,6]pyrido[4,3-d]pyrimidin-2-one]
< 0.1 µM: all assays above

CCN1C(=O)N(c2c(F)c(OC)cc(OC)c2Cl)Cc2cnc3[nH]c(CN4CCOCC4)cc3c21 [Example 141, 3-(2-chloro-6-fluoro-3,5-dimethoxyphenyl)-1-ethyl-8-(morpholin-4-ylmethyl)-1,3,4,7-tetrahydro-2H-pyrrolo[3′,2′:5,6]pyrido[4,3-d]pyrimidin-2-one]
< 0.1 µM: all assays above

COc1cc(OC)c(F)c(N2Cc3cnc4[nH]c(CCN5CC(F)C5)cc4c3N(C)C2=O)c1F [Example 143, 3-(2,6-difluoro-3,5-dimethoxyphenyl)-8-[2-(3-fluoroazetidin-1-yl)ethyl]-1-methyl-1,3,4,7-tetrahydro-2Hpyrrolo[3′,2′:5,6]pyrido[4,3-d]pyrimidin-2-one]
< 0.1 µM: all assays above

COc1cc(OC)c(F)c(N2Cc3cnc4[nH]c(CCN5CC(OC)C5)cc4c3N(C)C2=O)c1F [Example 144, 3-(2,6-difluoro-3,5-dimethoxyphenyl)-8-[2-(3-methoxyazetidin-1-yl)ethyl]-1-methyl-1,3,4,7-tetrahydro-2Hpyrrolo[3′,2′:5,6]pyrido[4,3-d]pyrimidin-2-one]
< 0.1 µM: all assays above

COc1cc(OC)c(Cl)c(N2Cc3cnc4[nH]ncc4c3N(c3cnn(C)c3)C2=O)c1F [Example 145, 3-(2-chloro-6-fluoro-3,5-dimethoxyphenyl)-1-(1-methyl-1H-pyrazol-4-yl)-1,3,4,7-tetrahydro-2H-pyrazolo[4′,3′:5,6]pyrido[4,3-d]pyrimidin-2-one]
< 0.1 µM: all assays above

COc1cc(OC)c(F)c(N2Cc3cnc4[nH]c(CCN5CCOCC5)cc4c3N(CCO)C2=O)c1F [Example 146, 3-(2,6-difluoro-3,5-dimethoxyphenyl)-1-(2-hydroxyethyl)-8-(2-morpholin-4-ylethyl)-1,3,4,7-tetrahydro-2H-pyrrolo[3′,2′:5,6]pyrido[4,3-d]pyrimidin-2-one]
< 0.1 µM: all assays above

COc1cc(OC)c(F)c(N2Cc3cnc4c(c3N(c3ncccc3Cl)C2=O)CC(=O)N4)c1F [Example 147, 1-(3-chloropyridin-2-yl)-3-(2,6-difluoro-3,5-dimethoxyphenyl)-3,4,7,9-tetrahydro-1H-pyrrolo[3′,2′:5,6]pyrido[4,3-d]pyrimidine-2,8-dione]
< 0.1 µM: all assays above

COc1cc(OC)c(F)c(N2Cc3cnc4[nH]ccc4c3C3(CCC3)C2=O)c1F [Example 148, 7′-(2,6-difluoro-3,5-dimethoxyphenyl)-6′,7′-dihydrospiro[cyclobutane-1,9′-pyrrolo[2,3-c][2,7]naphthyridin]-8′(3′H)-one]
< 0.1 µM: all assays above

COc1cc(OC)c(F)c(N2Cc3cnc4[nH]ccc4c3C3(CCCC3)C2=O)c1F [Example 149, 7′-(2,6-difluoro-3,5-dimethoxyphenyl)-6′,7′-dihydrospiro[cyclopentane-1,9′-pyrrolo[2,3-c][2,7]naphthyridin]-8′(3′H)-one]
< 0.1 µM: all assays above
